Source: US20130281524A1, “NOVEL TREATMENTS” (priority 2008, published 2013)
“Also recorded” adds a separate entry of the source.

What was measured:
[1] = tested on: gap junction communication between neurons and satellite glial cells in the trigeminal ganglion; assay: Dye coupling studies (True Blue) of neuron-satellite glia gap junction signalling in trigeminal ganglion after TNF-α and capsaicin; type: in vivo, Sprague Dawley rats; conditions: 10 mg/kg i.p. pre-treatment prior to TNF-α then capsaicin; V1 and V2 regions of ganglia
Procedure: (§1) Sprague Dawley rats injected with True Blue were used to localize neuronal cell bodies in the ganglion and study neuron-glia signalling via gap junctions in the trigeminal ganglion. Dye coupling studies were conducted under basal conditions and in response to tumour necrosis factor-α injection into the whisker pad and/or capsaicin injection into the eyebrow. Changes in connexin 26 and active p38 levels were determined by immunohistochemistry.
(§2) In addition, the effect of tonabersat prior to chemical stimulation on gap junction activity and expression of connexins and active p38 was investigated.
Young male rats (200-225 g) were brought to the lab and kept in a quiet environment for about 30 minutes. Rats were anesthetized by an intraperitoneal (i.p.) injection of 0.3 ml of ketamine and xylazine solution (800 mg and 60 mg in 10 ml, respectively; Sigma, St. Louis, Mo.). […] Initially, rats were injected with a fluorescent dye, True Blue (25 μl, 2 mg/ml in dimethyl sulfoxide, DMSO; Invitrogen, Eugene, Oreg.) in the whisker pad or eyebrow regions to retrogradely label neuronal cell bodies within the V1 and V2 regions of the trigeminal ganglion. Bilateral injections were performed using a 50 μL Hamilton syringe (Hamilton Company, Reno, Nev.) and a 261/2 G needle (Becton Dickinson, FranklinLakes, N.J.). […]

connexin 26 = assay: Immunohistochemistry of connexin 26 in trigeminal ganglia after TNF-α and capsaicin; type: in vivo, Sprague Dawley rats; conditions: 10 mg/kg i.p. pre-treatment
Procedure: as §1, §2
Ganglia were collected from untreated animals or animals injected with TNF-α, capsaicin, or TNF-α and capsaicin as described above. Sections were fixed using 4% paraformaldehyde for 60 minutes, permeabilized with 0.3% Triton-X100 for 60 minutes, and then incubated in 5% donkey serum for another 60 minutes. Sections were then incubated overnight at 4° C. with primary antibodies against connexin 26 (1:500 in PBS; Chemicon, Temecula, Calif.) or active p38 MAP kinase (1:200; Cell Signaling Technology, Danvers, Mass.). […]

active p38 MAP kinase = assay: Immunohistochemistry of active p38 in trigeminal ganglia after TNF-α and capsaicin; type: in vivo, Sprague Dawley rats; conditions: 10 mg/kg i.p. pre-treatment, neurons and satellite glial cells in V1 and V2 regions, compared to TNF-α and capsaicin treated animals
Procedure: as §1, §2
Ganglia were collected from untreated animals or animals injected with TNF-α, capsaicin, or TNF-α and capsaicin as described above. Sections were fixed using 4% paraformaldehyde for 60 minutes, permeabilized with 0.3% Triton-X100 for 60 minutes, and then incubated in 5% donkey serum for another 60 minutes. Sections were then incubated overnight at 4° C. with primary antibodies against connexin 26 (1:500 in PBS; Chemicon, Temecula, Calif.) or active p38 MAP kinase (1:200; Cell Signaling Technology, Danvers, Mass.). Immunoreactive proteins were visualized following incubation with Rhodamine Red Xconjugated donkey anti-rabbit antibodies (diluted 1:100 in PBS, Jackson Immuno-Research Laboratories, West Grove, Pa.) for 1 hour at room temperature and then mounted in Vectashield medium (H-1200) containing 4′,6 diamidino-2-phenylindole (DAPI) to allow for identification of neuronal and glial cell nuclei. As a control, some sections were incubated for 1 hour at room temperature with only the Rhodamine Red Xconjugated anti-rabbit antibodies. Images were collected as described above.
To determine whether TNF-α sensitization of capsaicin-responsive neurons could lead to increased expression of p38, animals were injected with TNF-α, capsaicin, or both agents and ganglion sections stained for the active phosphorylated form of p38. […]

trigeminal nerve = conditions: Parsons et al., Brit. J. Pharmacol. 2001, cited from earlier work

SMILES: CC(=O)c1ccc2c(c1)[C@H](NC(=O)c1ccc(F)c(Cl)c1)[C@H](O)C(C)(C)O2 [tonabersat, cis-6-acetyl-4-(S)-(3-chloro-4-fluorobenzoylamino)-3,4-dihydro-2,2-dimethyl-2H-1-benzopyran-3-(S)-ol]
- stimulated dye movement between neurons and satellite glial cells (gap junction communication) [1]: greatly reduced; also recorded: decrease
- level of connexin 26 staining (connexin 26; V1 and V2 regions, compared to animals treated with TNF-α and capsaicin): greatly decreased; also recorded: decrease
- number of plaques observed between neurons and satellite glial cells (connexin 26; ganglia from TNF-α and capsaicin treated animals, higher magnification): much lower
- active p38 levels (active p38 MAP kinase): greatly decreased; also recorded: blocked
- amount of nuclear staining of active p38 (active p38 MAP kinase): greatly decreased
- active p38 levels (active p38 MAP kinase; listed as Tonabersat): lowered p38 levels to those observed in ganglia obtained from untreated control animals
- trigeminal nerve activation (trigeminal nerve; 10 mg/kg, animal models): block
- trigeminal parasympathetic reflexes (trigeminal nerve): blockade
